In ChEMBL document CHEMBL5257024, “Synthesis of α,β-Unsaturated Carbonyl-Based Compounds, Oxime and Oxime Ether Analogs as Potential Anticancer Agents for Overcoming Cancer Multidrug Resistance by Modulation of Efflux Pumps in Tumor Cells” (J Med Chem, 2016):
Active and inactive are the calls of the source. No cut-off for these calls is given here.

How the values were obtained:
[1] = Cytotoxicity against human MCF-10A cells assessed as cell viability incubated for 96 hrs by MTT assay; type: toxicity, cell-based; design: concentration or dose not given beside the values; details: read-out: Activity
MIA PaCa-2 = assay: Antiproliferative activity against human MIA PaCa-2 cells assessed as inhibition of cell growth incubated for 48 hrs by propidium iodide staining based fluorometer assay; type: functional; details: MIA PaCa-2, 48 h
MCF7 = assay: Antiproliferative activity against human MCF7 cells assessed as inhibition of cell growth incubated for 48 hrs by propidium iodide staining based fluorometer assay; type: functional; details: MCF7, 48 h
A549 = assay: Antiproliferative activity against human A549 cells assessed as inhibition of cell growth incubated for 48 hrs by propidium iodide staining based fluorometer assay; type: functional; details: A549, 48 h
Tubulin (Sus scrofa) = Tubulin (Sus scrofa) (UniProt P02554+P02550); assay: Inhibition of pig brain tubulin polymerization at 25 uM measured after 15 mins by fluorescence based turbidimetry; type: tissue-based
Sus scrofa = species on record: Sus scrofa; assay: Induction of pig brain microtubule stabilization at 25 uM measured after 15 mins by fluorescence based turbidimetry; type: tissue-based
[2] = biological target: Epidermal growth factor receptor (Homo sapiens, UniProt P00533); assay: Inhibition of recombinant 6His-tagged EGFR cytoplasmic domain (645 to 1186 residues) (unknown origin) autophosphorylation expressed in baculovirus infected Sf9 insect cells preincubated for 10 mins followed by ATP and MgCl2 addition measured after 60 mins by DELFIA/time-resolved fluorometric analysis
[3] = Inhibition of full length mouse GST-tagged BRAF V600E mutant preincubated for 60 mins followed by addition of N-terminal His-tagged full length human MEK1 incubated for 25 mins in presence of ATP by ELISA assay
L5178Y [4] = assay: Reversal of multidrug resistance in mouse L5178Y cells transfected with human MDR1 assessed as reversal of rhodamine 123 accumulation at 50 ug/ml incubated for 30 mins by flow cytometry; type: functional, cell-based; details: dose 50.0 µg/ml
L5178Y [5] = assay: Reversal of multidrug resistance in mouse L5178Y cells transfected with human MDR1 assessed as reversal of rhodamine 123 accumulation at 5 ug/ml incubated for 30 mins by flow cytometry; type: functional, cell-based; details: dose 5.0 µg/ml
[6] = Toxicity in mouse L5178Y cells transfected with human MDR1 at 50 ug/ml after short period of incubation by tryptan blue assay; type: cell-based; details: dose 50 µg/ml
PANC-1 = assay: cells; details: Homo sapiens, PANC-1, 48 h
Description: Antiproliferative activity against human PANC-1 cells assessed as inhibition of cell growth incubated for 48 hrs by propidium iodide staining based fluorometer assay

HT-29 = assay: cells; details: Homo sapiens, HT-29, 48 h
Description: Antiproliferative activity against human HT-29 cells assessed as inhibition of cell growth incubated for 48 hrs by propidium iodide staining based fluorometer assay

NCI-H460 = assay: cells; details: Homo sapiens, NCI-H460, 48 h
Description: Antiproliferative activity against human NCI-H460 cells assessed as inhibition of cell growth incubated for 48 hrs by propidium iodide staining based fluorometer assay

PC-3 = assay: cells; details: Homo sapiens, PC-3, 48 h
Description: Antiproliferative activity against human PC-3 cells assessed as inhibition of cell growth incubated for 48 hrs by propidium iodide staining based fluorometer assay

Epidermal growth factor receptor, sequence (P00533 whole entry, the tested form may be a part): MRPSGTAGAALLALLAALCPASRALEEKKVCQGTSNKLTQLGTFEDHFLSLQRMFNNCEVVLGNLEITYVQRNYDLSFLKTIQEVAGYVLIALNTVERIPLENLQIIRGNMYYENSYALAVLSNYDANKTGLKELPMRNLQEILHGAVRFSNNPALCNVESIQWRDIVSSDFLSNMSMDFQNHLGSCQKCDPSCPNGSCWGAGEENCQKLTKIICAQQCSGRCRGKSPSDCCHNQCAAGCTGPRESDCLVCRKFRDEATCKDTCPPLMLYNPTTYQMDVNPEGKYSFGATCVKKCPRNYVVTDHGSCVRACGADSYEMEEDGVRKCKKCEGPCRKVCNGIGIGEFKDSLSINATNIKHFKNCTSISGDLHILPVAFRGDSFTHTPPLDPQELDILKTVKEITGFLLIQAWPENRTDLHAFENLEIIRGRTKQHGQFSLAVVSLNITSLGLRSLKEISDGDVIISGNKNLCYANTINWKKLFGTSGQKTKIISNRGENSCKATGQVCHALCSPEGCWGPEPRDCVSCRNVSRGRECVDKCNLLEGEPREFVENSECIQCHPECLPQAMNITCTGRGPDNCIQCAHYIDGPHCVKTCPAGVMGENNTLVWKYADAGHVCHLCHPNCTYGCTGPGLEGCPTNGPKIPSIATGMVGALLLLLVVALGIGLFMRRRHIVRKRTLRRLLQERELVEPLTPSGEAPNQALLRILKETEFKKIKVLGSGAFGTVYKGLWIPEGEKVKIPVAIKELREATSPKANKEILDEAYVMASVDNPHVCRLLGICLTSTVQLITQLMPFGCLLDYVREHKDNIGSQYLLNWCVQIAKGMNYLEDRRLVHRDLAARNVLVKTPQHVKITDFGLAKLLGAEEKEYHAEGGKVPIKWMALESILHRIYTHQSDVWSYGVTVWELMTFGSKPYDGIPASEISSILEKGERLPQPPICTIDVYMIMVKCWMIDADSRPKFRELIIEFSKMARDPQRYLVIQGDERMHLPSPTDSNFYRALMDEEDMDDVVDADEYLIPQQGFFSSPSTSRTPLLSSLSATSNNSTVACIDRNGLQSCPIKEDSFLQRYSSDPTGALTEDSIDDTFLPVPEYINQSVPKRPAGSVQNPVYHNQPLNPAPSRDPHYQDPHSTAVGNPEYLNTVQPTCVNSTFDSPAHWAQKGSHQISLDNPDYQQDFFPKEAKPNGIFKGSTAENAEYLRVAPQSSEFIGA
Tubulin (Sus scrofa), sequence (P02550 whole entry, looked up): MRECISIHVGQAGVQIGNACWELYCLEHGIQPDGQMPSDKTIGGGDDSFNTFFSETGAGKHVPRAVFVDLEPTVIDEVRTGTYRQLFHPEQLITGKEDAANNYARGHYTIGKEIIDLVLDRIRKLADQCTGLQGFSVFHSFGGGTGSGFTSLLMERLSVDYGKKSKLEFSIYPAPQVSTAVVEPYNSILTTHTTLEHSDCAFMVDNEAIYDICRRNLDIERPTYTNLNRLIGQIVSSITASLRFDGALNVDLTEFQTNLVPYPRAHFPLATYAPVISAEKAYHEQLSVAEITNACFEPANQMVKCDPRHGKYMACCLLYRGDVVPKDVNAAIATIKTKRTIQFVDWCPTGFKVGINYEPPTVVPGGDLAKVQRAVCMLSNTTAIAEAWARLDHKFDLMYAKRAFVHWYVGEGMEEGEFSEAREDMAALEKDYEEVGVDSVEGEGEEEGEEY
Tubulin (Sus scrofa), sequence (P02554 whole entry, looked up): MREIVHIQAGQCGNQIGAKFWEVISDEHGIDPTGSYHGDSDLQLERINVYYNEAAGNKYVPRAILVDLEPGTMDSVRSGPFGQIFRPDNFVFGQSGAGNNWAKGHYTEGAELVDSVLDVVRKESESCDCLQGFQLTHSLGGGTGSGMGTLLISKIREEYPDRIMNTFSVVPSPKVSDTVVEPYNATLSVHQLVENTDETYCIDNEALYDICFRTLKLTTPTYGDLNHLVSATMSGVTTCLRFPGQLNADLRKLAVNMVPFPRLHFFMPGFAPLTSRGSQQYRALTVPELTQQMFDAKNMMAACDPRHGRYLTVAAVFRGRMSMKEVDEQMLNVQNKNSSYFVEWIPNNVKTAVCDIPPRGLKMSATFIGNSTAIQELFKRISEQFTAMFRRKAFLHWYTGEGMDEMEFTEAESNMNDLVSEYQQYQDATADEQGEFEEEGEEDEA

| SMILES | viability at 96 h [1] [%] | IC50 (MIA PaCa-2) [nM] | IC50 (MCF7) [nM] | IC50 (A549) [nM] | inhibition (Tubulin (Sus scrofa)) | Activity (Sus scrofa) | IC50 [2] [nM] | IC50 [3] [nM] | Activity (L5178Y [4]) | Activity (L5178Y [5]) | Activity [6] | IC50 (PANC-1) [nM] | IC50 (HT-29) [nM] | IC50 (NCI-H460) [nM] | IC50 (PC-3) [nM] | IC50 ([2]; sf9) [nM] |
| --- | --- | --- | --- | --- | --- | --- | --- | --- | --- | --- | --- | --- | --- | --- | --- | --- |
| COc1ccc2c(c1)CCC(=C\c1cc(OC)c(OC)c(OC)c1Br)/C2=N\O | 92 | 1200 | 800 | 1200 | Active | inactive | 2100 | 1900 | Active | inactive | Non-Toxic | 1000 | 1700 | 1100 | 1400 |  |
| COc1cc2c(cc1OC)C(=N/O)/C(=C/c1cc(OC)c(OC)c(OC)c1Br)CC2 | 92 | 2900 | 2200 | 1900 | Active | inactive | 8400 | 6300 | Active | inactive | Non-Toxic | 2100 | 2200 | 2600 | 2200 |  |
| COc1cc(/C=C2\CC(C)C/C(=C\c3cc(OC)c(OC)c(OC)c3Br)C2=NO)c(Br)c(OC)c1OC (stereo not given) | 98 | 700 | 400 | 300 | Active | inactive |  | 2700 | inactive | inactive | Non-Toxic | 200 | 400 | 400 | 400 | 500 |
| COc1cc(/C=C2\CN(C)C/C(=C\c3cc(OC)c(OC)c(OC)c3Br)C2=NO)c(Br)c(OC)c1OC | 96 | 70 | 60 | 60 | inactive | inactive | 70 | 1600 | inactive | inactive | Non-Toxic | 90 | 70 | 80 | 90 |  |
| COc1cc(/C=C2\CC(C)c3ccccc3\C2=N\O)c(Br)c(OC)c1OC (stereo not given) | 98 | 2600 | 2500 | 2200 | Active | inactive | 3200 | 2400 | Active | inactive | Non-Toxic | 2000 | 2100 | 1900 | 1900 |  |
| COc1cc(/C=C2\CCc3c(O)cccc3\C2=N\O)c(Br)c(OC)c1OC | 90 | 1200 | 1400 | 2000 | Active | inactive | 4600 | 1700 | Active | inactive | Non-Toxic | 1500 | 1100 | 1300 | 2300 |  |
| CCN(CC)CCON=C1/C(=C/c2cc(OC)c(OC)c(OC)c2Br)CN(C)C/C1=C\c1cc(OC)c(OC)c(OC)c1Br | 95 | 80 | 90 | 70 | inactive | inactive | 100 | 3200 | inactive | inactive | Non-Toxic | 90 | 90 | 70 | 80 |  |
